Data from US9562268B2, “Risk assessment for adverse drug reactions” (Academia Sinica, priority 2003, dated 2017).
Like-named read-outs stand apart in the source and are kept apart here.

What was measured:
HLA-Cw*0302 = conditions: human, in vivo
Procedure: (§1) A total of 112 SJS/TEN patients were recruited either from Chang Gung Memorial Hospital or from several other medical centers throughout Taiwan. […] Drug taking history including dosage and duration, and the phenotypes of adverse drug reactions were recorded. The diagnostic criteria of clinical morphology were defined according to Roujeau (Roujeau J C, 1994). We define SJS as skin detachment of less than 10% of body-surface area, overlap SJS-TEN as skin detachment of 10-30%, and TEN as greater than 30%. SJS, overlap SJS-TEN and TEN are collectively referred to as SJS/TEN.
(§2) 73 tegretol-tolerant patients were included as controls. Volunteers from the general population of Taiwanese (n=94; age range: 20 to 80 years) were also recruited. The study was approved by the institutional review board, and informed consent was obtained.
(§3) Reagents for reverse lineblot sequence-specific oligonucleotide (SSO) were purchased from DYNAL Biotech Ltd. (Bromborough, UK) and used for HLA genotyping. Briefly, a PCR product was generated using biotinylated primer pairs for the second and the third exons of the HLA class I or class II loci, and then hybridized to a lineblot of SSO of probes immobilized on a nylon membrane. The presence of biotinylated PCR product bound to a specific probe is detected using streptavidin-horseradish peroxidase (HRP) and a chromogenic, soluble substrate to produce a blue “line” at the position of the positive probe. The probe reactivity pattern was interpreted by the genotyping software Dynal RELI™ SSO (DYNAL Biotech Ltd.; Bromborough, UK). Potential ambiguities were further resolved by sequence-based typing and DNA sequencing performed according to the IHWG Technical Manual (International Histocompatibility Working Group).

HLA-Cw*0801 = conditions: human, in vivo
Procedure: as §1, §2, §3

HLA-Cw*0806 = conditions: human, in vivo
Procedure: as §1, §2, §3

HLA-B*4601 = tested on: HLA-B*4601
Procedure: as §1, §2, §3
Allele frequencies in the different groups were compared by the Chi-square method with Yates correction by constructing 2×2 tables. P values were corrected for comparisons of multiple HLA alleles (Pc) by multiplying the raw P values by the observed number of HLA alleles present within the loci. Odds ratios were calculated with Haldane's modification, which adds 0.5 to all cells to accommodate possible zero counts.

HLA-A*1101 = experiment: Equivalent genetic marker incidence in patients with ADRs: HLA-A*1101; assay type: in vivo, human; conditions: SJS/TEN patients who received the drug
Procedure: as §1, §2
(§4) Reagents for reverse lineblot sequence-specific oligonucleotide (SSO) were purchased from DYNAL Biotech Ltd. (Bromborough, UK) and used for HLA genotyping. […] The presence of biotinylated PCR product bound to a specific probe is detected using streptavidin-horseradish peroxidase (HRP) and a chromogenic, soluble substrate to produce a blue “line” at the position of the positive probe. […]

HLA-DRB1*1202 = experiment: Equivalent genetic marker incidence in patients with ADRs: HLA-DRB1*1202; assay type: in vivo, human; conditions: SJS/TEN patients who received the drug
Procedure: as §1, §2, §4

[1] = patients with milder cutaneous reactions to the drug (n = 16)

Oc1ncnc2[nH]ncc12 [allopurinol]
HLA-Cw*0302 frequency (HLA-Cw*0302): 82%
Number of patients carrying HLA-Cw*0302 (HLA-Cw*0302): 14
HLA-Cw*0801 frequency (HLA-Cw*0801): 11.7%
Number of patients carrying HLA-Cw*0801 (HLA-Cw*0801): 2
HLA-Cw*0806 frequency (HLA-Cw*0806): 0(0%)
Number of patients carrying HLA-Cw*0806 (HLA-Cw*0806): 0(0%)

NC(=O)N1c2ccccc2C=Cc2ccccc21 [carbamazepine]
HLA-B*4601 frequency (HLA-B*4601; drug-tolerant group (n = 73)): 26%
Number of patients carrying HLA-B*4601 (HLA-B*4601; drug-tolerant group (n = 73)): 19
HLA-B*4601 frequency (HLA-B*4601; [1]): 62.5%
Number of patients carrying HLA-B*4601 (HLA-B*4601; [1]): 10
odds ratio, B*4601 associated drug-induced milder cutaneous ADRs (HLA-B*4601; versus drug-tolerant group): 4.73
HLA-A*1101 frequency (HLA-A*1101): 73.8%
Number of patients carrying HLA-A*1101 (HLA-A*1101): 31
HLA-DRB1*1202 frequency (HLA-DRB1*1202): 83.3%
Number of patients carrying HLA-DRB1*1202 (HLA-DRB1*1202): 35
